Reference: patent US20250195477A1, “DEUTERATED IDAZOXAN AND METHODS OF USE THEREOF” (Terran Biosciences Inc., priority 2022, published 2025)

Key:
[1] = Metabolic stability in human liver microsomes; assay type: in vitro ADME; conditions: significant if half-life increase >=15% or CLint ratio (deuterated compound/idazoxan) >1.15 or <0.85
Description: Test compound (1 μM) was incubated with pooled liver microsomes.
Pooled liver microsomes were purchased from a reputable commercial supplier. Microsomes were stored at −80° C. prior to use.
A minus cofactor control incubation was included for each compound tested where 0.1 M phosphate buffer pH 7.4 was added instead of NADPH (minus NADPH). Two control compounds were included with each species. All incubations were performed singularly for each test compound.
The reactions were stopped by transferring incubate into acetonitrile at the appropriate time points, in a 1:3 ratio. The termination plates were centrifuged at 3,000 rpm for 20 min at 4° C. to precipitate the protein.
Following protein precipitation, the sample supernatants were combined in cassettes of up to 4 compounds, internal standard was added and samples analysed using generic LCMS/MS conditions.
From a plot of In peak area ratio (compound peak area/internal standard peak area) against time, the gradient of the line was determined. Subsequently, half-life and intrinsic clearance were calculated using the equations below:
where V=Incubation volume (μL)/Microsomal protein (mg)
Relevant control compounds were assessed, ensuring intrinsic clearance values fell within the specified limits (if available). Any failures were rejected and the assay repeated. The intrinsic clearance (CLint) of the test compound and standard error (SE CLint), t½ and n (number of time points used to calculate CLint) were returned.

[2] = Metabolic stability in human liver microsomes; assay type: in vitro ADME; conditions: pH 7.4, pooled human liver microsomes 0.5 mg/mL, test compound 3 μM, NADPH, 0, 5, 15, 30, 45 min, LC-MS/MS; for microsomal CLint at 3 μM: read-out: CLint (μL/min/mg protein)
[3] = background statement; species and route not given; cited from earlier work

| SMILES | differences in in vitro clearance and half-life compared to idazoxan [1] | half-life at 3 μM [2] | microsomal CLint at 3 μM [2] | idazoxan reaching systemic circulation [3] |
| --- | --- | --- | --- | --- |
| [2H]c1ccc2c(c1)OCC(C1=NCCN1)O2 (centres unmarked) [Compound 1, 2-(2,3-dihydrobenzo[b][1,4]dioxin-2-yl-6-d)-4,5-dihydro-1H-imidazole] | significant differences | 8.05 h | 2.87 µL/min/mg |  |
| [2H]c1ccc2c(c1)OC(C1=NCCN1)CO2 (centres unmarked) [Compound 2, 2-(2,3-dihydrobenzo[b][1,4]dioxin-2-yl-7-d)-4,5-dihydro-1H-imidazole] | significant differences | 21.8 h | 1.06 µL/min/mg |  |
| [2H]c1cc2c(cc1[2H])OC(C1=NCCN1)CO2 (centres unmarked) [Compound 3, 2-(2,3-dihydrobenzo[b][1,4]dioxin-2-yl-6,7-d2)-4,5-dihydro-1H-imidazole] | significant differences | 10.4 h | 2.23 µL/min/mg |  |
| [2H]c1c([2H])c([2H])c2c(c1[2H])OCC(C1=NCCN1)O2 (centres unmarked) [Compound 4, 2-(2,3-dihydrobenzo[b][1,4]dioxin-2-yl-5,6,7,8-d4)-4,5-dihydro-1H-imidazole] | significant differences | 8.93 h | 2.59 µL/min/mg |  |
| [2H]c1ccc2c(c1)OCC(C1=NC([2H])([2H])C([2H])([2H])N1)O2 (centres unmarked) [Compound 49, 2-(2,3-dihydrobenzo[b][1,4]dioxin-2-yl-6-d)-4,5-dihydro-1H-imidazole-4,4,5,5-d4] | significant differences | 15.5 h | 1.49 µL/min/mg |  |
| [2H]c1ccc2c(c1)OC(C1=NC([2H])([2H])C([2H])([2H])N1)CO2 (centres unmarked) [Compound 50, 2-(2,3-dihydrobenzo[b][1,4]dioxin-2-yl-7-d)-4,5-dihydro-1H-imidazole-4,4,5,5-d4] | significant differences | 913 h | 0.0253 µL/min/mg |  |
| [2H]c1cc2c(cc1[2H])OC(C1=NC([2H])([2H])C([2H])([2H])N1)CO2 (centres unmarked) [Compound 51, 2-(2,3-dihydrobenzo[b][1,4]dioxin-2-yl-6,7-d2)-4,5-dihydro-1H-imidazole-4,4,5,5-d4] | significant differences | 13.8 h | 1.68 µL/min/mg |  |
| [2H]c1c([2H])c([2H])c2c(c1[2H])OCC(C1=NC([2H])([2H])C([2H])([2H])N1)O2 (centres unmarked) [Compound 52, 2-(2,3-dihydrobenzo[b][1,4]dioxin-2-yl-5,6,7,8-d4)-4,5-dihydro-1H-imidazole-4,4,5,5-d4] | significant differences | 7.75 h | 2.98 µL/min/mg |  |
| [2H]C1([2H])N=C(C2COc3ccccc3O2)NC1([2H])[2H] (centres unmarked) [Compound 64, 2-(2,3-dihydrobenzo[b][1,4]dioxin-2-yl)-4,5-dihydro-1H-imidazole-4,4,5,5-d4] | significant differences | 7.95 h | 2.91 µL/min/mg |  |
| COc1ccc2c(c1)[C@]13CCCC[C@@H]1[C@H](C2)N(C)CC3 [Dextromethorphan, reference compound] |  | 0.48 h | 48.1 µL/min/mg |  |
| c1ccc2c(c1)OCC(C1=NCCN1)O2 (centres unmarked) [Idazoxan] |  | 4.28 h | 5.39 µL/min/mg | 27-28% |
